ChEMBL document CHEMBL3297730, “Identification of 2,3-disubstituted pyridines as potent, non-emetic PDE4 inhibitors” (Bioorg Med Chem Lett, 2014)

Legend:
Cavia porcellus [1] = organism: Cavia porcellus; assay: Inhibition of Hartley guinea pig PDE4 assessed as hydrolization of cAMP by measuring [3H]cAMP at 100 nM by radioisotope method
Mustela putorius furo [2] = assay: Toxicity in Marshall ferret assessed as vomiting at 30 mg/kg, po after 2 hrs; type: organism-based; parameters: dose 30 mg/kg, route oral; details: in vivo
Mus musculus = assay: Inhibition of eosinophil infiltration in ovalbumin-sensitized mouse at 10 mg/kg, po qd for 2 days administered 30 mins prior to ovalbumin challenge relative to vehicle-treated control; type: functional
Cavia porcellus [3] = assay: Induction of bronchodilation in ovalbumin-sensitized guinea pig at 10 mg/kg, po administered 4 hrs prior to ovalbumin challenge measured for 20 mins relative to vehicle-treated control; type: functional
Cavia porcellus [4] = assay: Induction of bronchodilation in ovalbumin-sensitized guinea pig at 10 mg/kg, po administered 1 hr prior to ovalbumin challenge measured for 20 mins relative to vehicle-treated control; type: functional
[5] = Drug level in ovalbumin-sensitized guinea pig trachea treated with [14C]-2-(3-chlorophenoxy)-3-[3-(3-hydroxypyridin-4-yl)propoxy]pyridine at 10 mg/kg, po after 0.5 hrs; type: ADME, organism-based, Cavia porcellus; parameters: dose 10 mg/kg, route oral; details: in vivo
[6] = Drug level in ovalbumin-sensitized guinea pig plasma treated with [14C]-2-(3-chlorophenoxy)-3-[3-(3-hydroxypyridin-4-yl)propoxy]pyridine at 10 mg/kg, po after 4 hrs; type: ADME, organism-based, Cavia porcellus; parameters: dose 10 mg/kg, route oral; details: in vivo
[7] = Drug level in ovalbumin-sensitized guinea pig trachea treated with [14C]-2-(3-chlorophenoxy)-3-[3-(3-hydroxypyridin-4-yl)propoxy]pyridine at 10 mg/kg, po after 2 hrs; type: ADME, organism-based, Cavia porcellus; parameters: dose 10 mg/kg, route oral; details: in vivo
[8] = Drug level in ovalbumin-sensitized guinea pig trachea treated with [14C]-2-(3-chlorophenoxy)-3-[3-(3-hydroxypyridin-4-yl)propoxy]pyridine at 10 mg/kg, po after 4 hrs; type: ADME, organism-based, Cavia porcellus; parameters: dose 10 mg/kg, route oral; details: in vivo
[9] = Drug level in ovalbumin-sensitized guinea pig plasma treated with [14C]-2-(3-chlorophenoxy)-3-[3-(3-hydroxypyridin-4-yl)propoxy]pyridine at 10 mg/kg, po after 0.5 hrs; type: ADME, organism-based, Cavia porcellus; parameters: dose 10 mg/kg, route oral; details: in vivo
[10] = Inhibition of Hartley guinea pig PDE4 assessed as hydrolization by radioisotope method; parameters: species or system Cavia porcellus
[11] = Drug level in ovalbumin-sensitized guinea pig plasma treated with [14C]-2-(3-chlorophenoxy)-3-[3-(3-hydroxypyridin-4-yl)propoxy]pyridine at 10 mg/kg, po after 2 hrs; type: ADME, organism-based, Cavia porcellus; parameters: dose 10 mg/kg, route oral; details: in vivo
[12] = Drug level in ovalbumin-sensitized guinea pig lung treated with [14C]-2-(3-chlorophenoxy)-3-[3-(3-hydroxypyridin-4-yl)propoxy]pyridine at 10 mg/kg, po after 0.5 hrs; type: ADME, organism-based, Cavia porcellus; parameters: dose 10 mg/kg, route oral; details: in vivo
[13] = Drug level in ovalbumin-sensitized guinea pig lung treated with [14C]-2-(3-chlorophenoxy)-3-[3-(3-hydroxypyridin-4-yl)propoxy]pyridine at 10 mg/kg, po after 2 hrs; type: ADME, organism-based, Cavia porcellus; parameters: dose 10 mg/kg, route oral; details: in vivo
[14] = Drug level in ovalbumin-sensitized guinea pig lung treated with [14C]-2-(3-chlorophenoxy)-3-[3-(3-hydroxypyridin-4-yl)propoxy]pyridine at 10 mg/kg, po after 4 hrs; type: ADME, organism-based, Cavia porcellus; parameters: dose 10 mg/kg, route oral; details: in vivo
Mustela putorius furo [15] = assay: Toxicity in po dosed Marshall ferret assessed as vomiting; type: organism-based; details: in vivo
[16] = Drug level in ovalbumin-sensitized guinea pig brain assessed as radioactivity at 10 mg/kg, po after 4 hrs; type: ADME, organism-based, Cavia porcellus; parameters: dose 10 mg/kg, route oral; details: in vivo
Mustela putorius furo [17] = assay: Toxicity in Marshall ferret assessed as vomiting at 10 mg/kg, po after 2 hrs; type: organism-based; parameters: dose 10 mg/kg, route oral; details: in vivo
[18] = Drug level in ovalbumin-sensitized guinea pig lung assessed as radioactivity at 10 mg/kg, po after 4 hrs; type: ADME, organism-based, Cavia porcellus; parameters: dose 10 mg/kg, route oral; details: in vivo
[19] = Drug level in ovalbumin-sensitized guinea pig plasma assessed as radioactivity at 10 mg/kg, po after 0.5 hrs; type: ADME, organism-based, Cavia porcellus; parameters: dose 10 mg/kg, route oral; details: in vivo
[20] = Drug level in ovalbumin-sensitized guinea pig brain assessed as radioactivity at 10 mg/kg, po after 0.5 hrs; type: ADME, organism-based, Cavia porcellus; parameters: dose 10 mg/kg, route oral; details: in vivo
[21] = Drug level in ovalbumin-sensitized guinea pig lung assessed as radioactivity at 10 mg/kg, po after 0.5 hrs; type: ADME, organism-based, Cavia porcellus; parameters: dose 10 mg/kg, route oral; details: in vivo
[22] = Drug level in ovalbumin-sensitized guinea pig lung assessed as radioactivity at 10 mg/kg, po after 2 hrs; type: ADME, organism-based, Cavia porcellus; parameters: dose 10 mg/kg, route oral; details: in vivo
[23] = Drug level in ovalbumin-sensitized guinea pig plasma assessed as radioactivity at 10 mg/kg, po after 4 hrs; type: ADME, organism-based, Cavia porcellus; parameters: dose 10 mg/kg, route oral; details: in vivo
Cavia porcellus [24] = organism: Cavia porcellus; assay: Inhibition of immediate asthmatic response in ovalbumin-sensitized guinea pig; type: functional
[25] = Drug level in ovalbumin-sensitized guinea pig trachea assessed as radioactivity at 10 mg/kg, po after 4 hrs; type: ADME, organism-based, Cavia porcellus; parameters: dose 10 mg/kg, route oral; details: in vivo
Cavia porcellus [26] = organism: Cavia porcellus; assay: Inhibition of late asthmatic response in ovalbumin-sensitized guinea pig; type: functional
[27] = Drug level in ovalbumin-sensitized guinea pig plasma assessed as radioactivity at 10 mg/kg, po after 2 hrs; type: ADME, organism-based, Cavia porcellus; parameters: dose 10 mg/kg, route oral; details: in vivo
[28] = Inhibition of bovine PDE3; parameters: species or system Bos taurus
[29] = Drug level in ovalbumin-sensitized guinea pig trachea assessed as radioactivity at 10 mg/kg, po after 0.5 hrs; type: ADME, organism-based, Cavia porcellus; parameters: dose 10 mg/kg, route oral; details: in vivo
[30] = Drug level in ovalbumin-sensitized guinea pig brain assessed as radioactivity at 10 mg/kg, po after 2 hrs; type: ADME, organism-based, Cavia porcellus; parameters: dose 10 mg/kg, route oral; details: in vivo
[31] = Drug level in ovalbumin-sensitized guinea pig trachea assessed as radioactivity at 10 mg/kg, po after 2 hrs; type: ADME, organism-based, Cavia porcellus; parameters: dose 10 mg/kg, route oral; details: in vivo
Phosphodiesterase 4 = Phosphodiesterase 4 (Homo sapiens, UniProt P27815+Q08499+Q07343+Q08493); assay: Inhibition of human PDE4; type: protein assay
Mustela putorius furo [32] = assay: Toxicity in Marshall ferret assessed as vomiting at 300 mg/kg, po after 2 hrs; type: organism-based; parameters: dose 300 mg/kg, route oral; details: in vivo
Mustela putorius furo [33] = assay: Toxicity in Marshall ferret assessed as vomiting at 1 mg/kg, po after 2 hrs; type: organism-based; parameters: dose 1 mg/kg, route oral; details: in vivo

With `Oc1cnccc1CCCOc1cccnc1Oc1cccc(Br)c1` the inhibition (Cavia porcellus [1]) was 77%, the Activity (Mustela putorius furo [2]) was “Non-toxic” and the inhibition in vivo at 10 mg/kg (Mus musculus) was 50%. For the same molecule, the Activity (Cavia porcellus [3]) was 12% and the Activity (Cavia porcellus [4]) was 70%.

With `Oc1cnccc1CCCOc1cccnc1Oc1cc(Cl)cc(Cl)c1` the inhibition (Cavia porcellus [1]) was 6%.

With `Oc1cnccc1CCCOc1cccnc1Cc1cccc(Br)c1` the inhibition (Cavia porcellus [1]) was 87%, the inhibition in vivo at 10 mg/kg (Mus musculus) was 44% and the Activity (Cavia porcellus [4]) was 13%.

With `Brc1cccc(Cc2ncccc2OCCCc2ccncc2)c1` the inhibition (Cavia porcellus [1]) was 89%, the inhibition in vivo at 10 mg/kg (Mus musculus) was 43% and the Activity (Cavia porcellus [4]) was 63%.

`O=S(=O)(O)Oc1cnccc1CCCOc1cccnc1Oc1cccc(Cl)c1` showed a Drug uptake [5] of 17.2 ngequiv/g, a Cp [6] of 194.4 ngequiv/ml and a Drug uptake [7] of 34.4 ngequiv/g. It also gave a Drug uptake [8] of 44 ngequiv/g, a Cp [9] of 43.8 ngequiv/ml and an IC50 [10] of 837 nM. It also gave a Cp [11] of 219.2 ngequiv/ml, a Drug uptake [12] of 29.2 ngequiv/g and a Drug uptake [13] of 78.9 ngequiv/g. For the same molecule, the Drug uptake [14] was 79.9 ngequiv/g.

`Brc1cccc(Oc2ncccc2OCCCc2ccncc2)c1` gave an inhibition (Cavia porcellus [1]) of 80%, an inhibition in vivo at 10 mg/kg (Mus musculus) of 23% and an Activity (Cavia porcellus [4]) of 49%.

In the case of `O=C(O)[C@H]1O[C@@H](Oc2cnccc2CCCOc2cccnc2Oc2cccc(Cl)c2)[C@H](O)[C@@H](O)[C@@H]1O`, the Drug uptake [5] is reported as 53.6 ngequiv/g, the Cp [6] is reported as 79.3 ngequiv/ml and the Drug uptake [7] is reported as 33.7 ngequiv/g. For the same molecule, the Drug uptake [8] was 28.1 ngequiv/g, the Cp [9] was 130.4 ngequiv/ml and the IC50 [10] was 11500 nM. The Cp [11] was 130.8 ngequiv/ml, the Drug uptake [12] was 46.5 ngequiv/g and the Drug uptake [13] was 59.5 ngequiv/g. For the same molecule, the Drug uptake [14] was 33.8 ngequiv/g.

In the case of `Brc1cccc(Sc2ncccc2OCCCc2ccncc2)c1`, the Activity (Mustela putorius furo [15]) is reported as “Dose-dependent effect”, the inhibition (Cavia porcellus [1]) is reported as 80% and the Activity (Mustela putorius furo [2]) is reported as “Toxic”. It also gave an inhibition in vivo at 10 mg/kg (Mus musculus) of 50% and an Activity (Cavia porcellus [4]) of 77%.

In the case of `Oc1cnccc1CCCOc1cccnc1Oc1cccc(Cl)c1`, the Drug uptake [16] is reported as 14.5 ngequiv/g, the inhibition (Cavia porcellus [1]) is reported as 75% and the Activity (Mustela putorius furo [2]) is reported as “Non-toxic”. For the same molecule, the Activity (Mustela putorius furo [17]) was “Non-toxic”, the Drug uptake [5] was 14.4 ngequiv/g and the Drug uptake [18] was 178.7 ngequiv/g. For the same molecule, the Cp [19] was 387.6 ngequiv/ml, the Drug uptake [20] was 31.9 ngequiv/g and the Drug uptake [21] was 251.2 ngequiv/g. The Drug uptake [22] was 232.9 ngequiv/g, the Cp [23] was 346.2 ngequiv/ml and the “inhibition (INH)” value (Cavia porcellus [24]) was 45%. The Drug uptake [25] was 90.1 ngequiv/g, the Activity (Cavia porcellus [3]) was 45% and the “inhibition (INH)” value (Cavia porcellus [26]) was 40%. It also gave an Activity (Cavia porcellus [4]) of 55%, a Cp [9] of 1.7 ngequiv/ml and a Cp [27] of 452.8 ngequiv/ml. For the same molecule, the IC50 [10] was 38 nM, the Drug uptake [12] was 21 ngequiv/g and the IC50 [28] was > 30000 nM. For the same molecule, the Drug uptake [13] was 12.8 ngequiv/g, the Drug uptake [29] was 142.1 ngequiv/g and the Drug uptake [30] was 17.7 ngequiv/g. For the same molecule, the Drug uptake [14] was 7.7 ngequiv/g, the Drug uptake [31] was 85.1 ngequiv/g and the IC50 (Phosphodiesterase 4) was 33 nM. The Activity (Mustela putorius furo [32]) was “Non-toxic”.

`Oc1cnccc1CCCOc1cccnc1Sc1cccc(Br)c1` showed an inhibition (Cavia porcellus [1]) of 66%, an inhibition in vivo at 10 mg/kg (Mus musculus) of 33% and an Activity (Cavia porcellus [4]) of 8%.

Work on `O=C(c1cccc(Br)c1)c1ncccc1OCCCc1ccncc1` yielded an inhibition (Cavia porcellus [1]) of 27%.

With `COc1ccc(C2CNC(=O)C2)cc1OC1CCCC1` (centres undefined) [ROLIPRAM] the Activity (Mustela putorius furo [15]) was “Dose-dependent effect”, the Activity (Mustela putorius furo [33]) was “Non-toxic” and the inhibition (Cavia porcellus [1]) was 54%. The Activity (Mustela putorius furo [17]) was “Toxic”, the Activity (Cavia porcellus [3]) was 13% and the Activity (Cavia porcellus [4]) was 50%.

Molecule `Brc1cccc(Nc2ncccc2OCCCc2ccncc2)c1` has an inhibition (Cavia porcellus [1]) of 51%.

For `Oc1cnccc1CCCOc1cccnc1Oc1ccccc1Cl`, the inhibition (Cavia porcellus [1]) was 30%.

In the case of `Oc1cnccc1CCCOc1cccnc1Oc1cccc(F)c1`, the inhibition (Cavia porcellus [1]) is reported as 74%, the Activity (Cavia porcellus [3]) is reported as 9% and the Activity (Cavia porcellus [4]) is reported as 55%.

Work on `Oc1cnccc1CCCOc1cccnc1Oc1ccc(Cl)cc1` yielded an inhibition (Cavia porcellus [1]) of 46%.
